Reference: ChEMBL document CHEMBL6074623, “Carbamoylation at C-8 position of natural 3-arylcoumarin scaffold for the discovery of novel PARP-1 inhibitors with potent anticancer activity” (Eur J Med Chem, 2024)
Calls of active or inactive are those of the source. The calls are words filed in the database; no cut-off is given here.

Experiments:
HCC1937 = test: Antiproliferative activity against human HCC1937 cells assessed as inhibition of cell growth at 20 uM incubated for 48 hrs by MTT assay relative to control; type: functional
SUM149PT [1] = test: Induction of apoptosis in human SUM149PT cells assessed as viable cells at 0.1 uM incubated for 48 hrs by Annexin V-FITC/PI staining based flow cytometry (reference value: 96.1 %); type: functional; settings: read-out: Activity
SUM149PT [2] = test: Induction of ROS in human SUM149PT cells assessed as increase in fluorescence intensity incubated for 48 hrs by DCFH-DA staining based confocal laser scanning microscopic analysis; type: functional, cell-based
SUM149PT [3] = test: Induction of apoptosis in human SUM149PT cells assessed as necrotic cells at 2 uM incubated for 48 hrs by Annexin V-FITC/PI staining based flow cytometry (reference value: 0.51 %); type: functional
SUM149PT [4] = test: Induction of cell cycle arrest in human SUM149PT cells assessed as accumulation of cells at G0/G1 phase at 0.5 uM incubated for 48 hrs by propidium iodide/RNase A staining based flow cytometry (reference value: 69.2 %); type: functional
Mitochondrial membrane [5] = test: Induction of mitochondrial membrane potential loss in human SUM149PT cells at 2 uM incubated for 48 hrs by JC-1 staining based confocal laser scanning microscopic analysis relative to niraparib
SUM149PT [6] = test: Induction of apoptosis in human SUM149PT cells assessed as late apoptotic cells at 0.5 uM incubated for 24 hrs by Annexin V-FITC/PI staining based flow cytometry (reference value: 2.45 %); type: functional
SUM149PT [7] = test: Induction of cell cycle arrest in human SUM149PT cells assessed as accumulation of cells at G0/G1 phase at 0.5 uM incubated for 24 hrs by propidium iodide/RNase A staining based flow cytometry (reference value: 72.8 %); type: functional
SUM149PT [8] = test: Induction of apoptosis in human SUM149PT cells assessed as necrotic cells at 0.1 uM incubated for 24 hrs by Annexin V-FITC/PI staining based flow cytometry (reference value: 1.27 %); type: functional
SUM149PT [9] = test: Induction of apoptosis in human SUM149PT cells assessed as downregulation of BCL-2 expression incubated for 48 hrs by Western blotting analysis; type: functional, cell-based
SUM149PT [10] = test: Induction of cell cycle arrest in human SUM149PT cells assessed as accumulation of cells at S phase at 0.5 uM incubated for 48 hrs by propidium iodide/RNase A staining based flow cytometry (reference value: 18.7 %); type: functional
SUM149PT [11] = test: Antiproliferative activity against human SUM149PT cells assessed as inhibition of cell growth incubated for 48 hrs by MTT assay; type: functional, cell-based
SUM149PT [12] = test: Induction of cell cycle arrest in human SUM149PT cells assessed as accumulation of cells at G2/M phase at 0.5 uM incubated for 48 hrs by propidium iodide/RNase A staining based flow cytometry (reference value: […] %); type: functional
SUM149PT [13] = test: Induction of apoptosis in human SUM149PT cells assessed as early apoptotic cells at 0.5 uM incubated for 48 hrs by Annexin V-FITC/PI staining based flow cytometry (reference value: 2.28 %); type: functional
CAPAN-1 [14] = test: Antiproliferative activity against human CAPAN-1 cells assessed as inhibition of cell growth at 20 uM incubated for 48 hrs by MTT assay relative to control; type: functional
[15] = biological target: Poly [ADP-ribose] polymerase 1 (Homo sapiens, UniProt P09874); test: Inhibition of PARP-1 in human SUM149PT cells incubated for 48 hrs by HRP-ELISA; type: cell-based
SUM149PT [16] = test: Induction of apoptosis in human SUM149PT cells assessed as upregulation of caspase-3 expression incubated for 48 hrs by Western blotting analysis; type: functional, cell-based
SUM149PT [17] = test: Induction of cell cycle arrest in human SUM149PT cells assessed as accumulation of cells at S phase at 0.5 uM incubated for 24 hrs by propidium iodide/RNase A staining based flow cytometry (reference value: 16.4 %); type: functional
MDA-MB-436 = test: Antiproliferative activity against human MDA-MB-436 cells assessed as inhibition of cell growth at 20 uM incubated for 48 hrs by MTT assay relative to control; type: functional
SUM149PT [18] = test: Induction of apoptosis in human SUM149PT cells assessed as upregulation of BAX expression incubated for 48 hrs by Western blotting analysis; type: functional, cell-based
SUM149PT [19] = test: Induction of apoptosis in human SUM149PT cells assessed as viable cells at 0.5 uM incubated for 24 hrs by Annexin V-FITC/PI staining based flow cytometry (reference value: 93.7 %); type: functional; settings: read-out: Activity
SUM149PT [20] = test: Induction of apoptosis in human SUM149PT cells assessed as upregulation of cleaved PARP expression incubated for 48 hrs by Western blotting analysis; type: functional, cell-based
SUM149PT [21] = test: Induction of apoptosis in human SUM149PT cells assessed as late apoptotic cells at 0.1 uM incubated for 48 hrs by Annexin V-FITC/PI staining based flow cytometry (reference value: 1.13 %); type: functional
[22] = biological target: Poly [ADP-ribose] polymerase 2 (Homo sapiens, UniProt Q9UGN5); test: Inhibition of PARP-2 in human SUM149PT cells incubated for 48 hrs by HRP-ELISA; type: cell-based
SUM149PT [23] = test: Antiproliferative activity against human SUM149PT cells assessed as inhibition of cell growth at 20 uM incubated for 48 hrs by MTT assay relative to control; type: functional
Mitochondrial membrane [24] = test: Induction of mitochondrial membrane potential loss in human SUM149PT cells incubated for 48 hrs by JC-1 staining based confocal laser scanning microscopic analysis
SUM149PT [25] = test: Induction of apoptosis in human SUM149PT cells assessed as necrotic cells at 2 uM incubated for 24 hrs by Annexin V-FITC/PI staining based flow cytometry (reference value: 1.27 %); type: functional
SUM149PT [26] = test: Induction of apoptosis in human SUM149PT cells assessed as viable cells at 2 uM incubated for 48 hrs by Annexin V-FITC/PI staining based flow cytometry (reference value: 96.1 %); type: functional; settings: read-out: Activity
SUM149PT [27] = test: Induction of cell cycle arrest in human SUM149PT cells assessed as accumulation of cells at G2/M phase at 0.5 uM incubated for 24 hrs by propidium iodide/RNase A staining based flow cytometry (reference value: 5.54 %); type: functional
SUM149PT [28] = test: Induction of cell cycle arrest in human SUM149PT cells assessed as accumulation of cells at G2/M phase at 0.1 uM incubated for 48 hrs by propidium iodide/RNase A staining based flow cytometry (reference value: […] %); type: functional
SUM149PT [29] = test: Induction of ROS in human SUM149PT cells assessed as increase in fluorescence intensity at 2 uM incubated for 48 hrs by DCFH-DA staining based confocal laser scanning microscopic analysis relative to niraparib; type: functional, cell-based
CAPAN-1 [30] = test: Antiproliferative activity against human CAPAN-1 cells assessed as inhibition of cell growth at 5 uM incubated for 48 hrs by MTT assay relative to control; type: functional
SUM149PT [31] = test: Induction of apoptosis in human SUM149PT cells assessed as upregulation of cleaved caspase-3 expression incubated for 48 hrs by Western blotting analysis; type: functional, cell-based
SUM149PT [32] = test: Induction of apoptosis in human SUM149PT cells assessed as viable cells at 2 uM incubated for 24 hrs by Annexin V-FITC/PI staining based flow cytometry (reference value: 93.7 %); type: functional; settings: read-out: Activity

Chain of Poly [ADP-ribose] polymerase 1 (P09874 whole entry): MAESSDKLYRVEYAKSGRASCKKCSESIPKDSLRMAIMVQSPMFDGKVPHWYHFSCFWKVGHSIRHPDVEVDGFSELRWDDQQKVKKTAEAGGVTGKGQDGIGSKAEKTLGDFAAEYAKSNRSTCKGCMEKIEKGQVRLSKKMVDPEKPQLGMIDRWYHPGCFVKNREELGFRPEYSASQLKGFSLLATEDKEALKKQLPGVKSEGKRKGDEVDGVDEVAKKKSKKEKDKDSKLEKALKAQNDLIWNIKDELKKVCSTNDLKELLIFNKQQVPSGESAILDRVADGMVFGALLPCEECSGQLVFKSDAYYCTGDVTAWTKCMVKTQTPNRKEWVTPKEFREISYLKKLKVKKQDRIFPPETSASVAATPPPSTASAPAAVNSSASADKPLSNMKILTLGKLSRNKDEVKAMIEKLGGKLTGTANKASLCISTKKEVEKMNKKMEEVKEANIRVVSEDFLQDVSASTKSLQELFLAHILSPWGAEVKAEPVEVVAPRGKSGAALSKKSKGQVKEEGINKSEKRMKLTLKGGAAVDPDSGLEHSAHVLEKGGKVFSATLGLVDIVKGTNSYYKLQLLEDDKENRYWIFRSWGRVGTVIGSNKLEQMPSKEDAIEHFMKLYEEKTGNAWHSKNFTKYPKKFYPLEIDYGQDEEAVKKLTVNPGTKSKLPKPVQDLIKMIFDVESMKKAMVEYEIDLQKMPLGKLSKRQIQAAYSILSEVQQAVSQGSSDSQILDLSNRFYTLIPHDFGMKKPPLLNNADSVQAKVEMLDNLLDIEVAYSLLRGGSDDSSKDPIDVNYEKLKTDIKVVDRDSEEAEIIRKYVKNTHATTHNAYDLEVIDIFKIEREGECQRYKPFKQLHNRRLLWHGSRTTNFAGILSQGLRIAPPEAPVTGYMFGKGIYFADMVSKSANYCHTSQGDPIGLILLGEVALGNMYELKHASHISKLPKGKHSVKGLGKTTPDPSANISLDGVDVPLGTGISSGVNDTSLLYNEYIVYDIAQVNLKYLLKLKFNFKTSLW
Chain of Poly [ADP-ribose] polymerase 2 (Q9UGN5 whole entry): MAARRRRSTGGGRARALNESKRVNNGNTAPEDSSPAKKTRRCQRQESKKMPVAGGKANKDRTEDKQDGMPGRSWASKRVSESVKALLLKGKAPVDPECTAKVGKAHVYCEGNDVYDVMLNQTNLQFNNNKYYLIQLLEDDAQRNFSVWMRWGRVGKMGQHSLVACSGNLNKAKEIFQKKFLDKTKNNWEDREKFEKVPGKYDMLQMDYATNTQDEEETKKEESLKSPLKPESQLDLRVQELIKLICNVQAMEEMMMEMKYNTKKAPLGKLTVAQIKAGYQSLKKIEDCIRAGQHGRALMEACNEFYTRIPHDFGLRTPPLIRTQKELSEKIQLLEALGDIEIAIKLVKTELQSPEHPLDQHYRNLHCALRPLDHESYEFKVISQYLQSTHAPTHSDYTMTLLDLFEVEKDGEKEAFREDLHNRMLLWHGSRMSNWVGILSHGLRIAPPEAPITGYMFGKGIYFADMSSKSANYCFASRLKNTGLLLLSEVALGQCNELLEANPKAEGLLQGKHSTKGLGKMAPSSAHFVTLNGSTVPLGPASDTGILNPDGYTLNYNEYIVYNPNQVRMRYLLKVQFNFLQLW

Compound: COc1cccc(-c2cc3cc(F)cc(C(N)=O)c3oc2=O)c1
- inhibition at 20 µM (HCC1937): > 60%
- viability at 0.1 µM (SUM149PT [1]): 87.3%
- Activity (SUM149PT [2]): Dose-dependent-effect
- Activity (SUM149PT [3]): 2.61%
- Activity (SUM149PT [4]): 38.3%
- Activity (Mitochondrial membrane [5]): Active
- Activity (SUM149PT [6]): 5.48%
- Activity (SUM149PT [7]): 64.3%
- Activity (SUM149PT [8]): 1.86%
- Activity (SUM149PT [9]): Dose-dependent-effect
- Activity (SUM149PT [10]): 25.3%
- IC50 (SUM149PT [11]): 620 nM
- Activity (SUM149PT [12]): 36.7%
- Activity (SUM149PT [13]): 13.4%
- inhibition at 20 µM (CAPAN-1 [14]): > 60%
- IC50 [15]: 2.53 nM
- Activity (SUM149PT [16]): Dose-dependent-effect
- Activity (SUM149PT [17]): 17.4%
- inhibition at 20 µM (MDA-MB-436): < 40%
- Activity (SUM149PT [18]): Dose-dependent-effect
- viability at 0.5 µM (SUM149PT [19]): 86.6%
- Activity (SUM149PT [20]): Dose-dependent-effect
- Activity (SUM149PT [21]): 6%
- IC50 [22]: 6.45 nM
- inhibition at 20 µM (SUM149PT [23]): > 80%
- Activity (Mitochondrial membrane [24]): Dose-dependent-effect
- Activity (SUM149PT [25]): 6.61%
- viability at 2 µM (SUM149PT [26]): 61%
- Activity (SUM149PT [27]): 22.3%
- Activity (SUM149PT [28]): 29.1%
- Activity (SUM149PT [29]): Active
- inhibition at 5 µM (CAPAN-1 [30]): > 50%
- Activity (SUM149PT [31]): Dose-dependent-effect
- viability at 2 µM (SUM149PT [32]): 76.7%
